Values of other authors as cited in US20210368801A1, “COMPOSITION FOR PREPARING HYPOCHLOROUS ACID WATER, AND TEST PAPER FOR DETERMINING HYPOCHLOROUS ACID WATER” (Wabian Co., Ltd., priority 2020, published 2021).

Experiments:
[1] = test system: coronavirus; details: as an effective chlorine amount, according to NITE
[2] = electrolytic type; http://www.jsia.gr.jp/data/naclo.pdf

SMILES	effective concentration for the coronavirus [1] [ppm]	LD50 [2] [mg/kg]
OCl [hypochlorous acid]	35	–
OCl [sodium hypochlorite]	–	1000
